# Source: PubChem BioAssay AID1259411 (Chemical Carcinogenesis Research Information System (CCRIS), 2018)
# Activity calls are given as the source filed them. How the calls were made is not given here.
# Test system: rodent carcinogenicity bioassays, tumor incidence
# Assay: CCRIS carcinogenicity studies
# Method in brief: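 Archive of carcinogenicity, mutagenicity, tumor promotion and tumor inhibition results drawn from journals, NCI reports and other sources, expert-reviewed; covers 1985-2011 and is no longer updated.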
structure (smiles),measurement,setting,value
Nc1ccc(Cl)cc1,carcinogen call,"Species: MOUSE, Strain/Sex: B6C3F1/F, Route: GAVAGE, Dose: 0, 3, 10, 30 MG/KG IN ACIDIFIED WATER 5D/WK FOR 103 WK (STUDY DURATION: 104 WK, Dose: 0, 3, 10, 30 MG/KG IN ACIDIFIED WATER 5D/WK FOR 103 WK (STUDY DURATION: 104 WK",inactive; negative
same,carcinogen call,"Species: MOUSE, Strain/Sex: B6C3F1/FEMALE, Route: ORAL, Dose: 0, 2500, 5000 PPM IN DIET FOR 78 WK (STUDY DURATION: 91 WK), Dose: 0, 2500, 5000 PPM IN DIET FOR 78 WK (STUDY DURATION: 91 WK), Tumor Site: Type of Lesion: SPLEEN: HEMANGIOMA AND HEMANGIOSARCOMA, LIVER: HEMANGIOSARCOMA, MULTIPLE ORGANS: HEMANGIOSARCOMA, Tumor Site: Type of Lesion: SPLEEN: HEMANGIOMA AND HEMANGIOSARCOMA, LIVER: HEMANGIOSARCOMA, MULTIPLE ORGANS: HEMANGIOSARCOMA",equivocal
same,carcinogen call,"Species: MOUSE, Strain/Sex: B6C3F1/MALE, Route: GAVAGE, Dose: 0, 3, 10, 30 MG/KG IN ACIDIFIED WATER 5D/WK FOR 103 WK (STUDY DURATION: 104 WK), Dose: 0, 3, 10, 30 MG/KG IN ACIDIFIED WATER 5D/WK FOR 103 WK (STUDY DURATION: 104 WK), Tumor Site: Type of Lesion: LIVER: HEPATOCELLULAR CARCINOMA, LIVER: HEPATOCELLULAR ADENOMA OR CARCINOMA, CIRCULATORY SYSTEM: HEMANGIOSARCOMA, Tumor Site: Type of Lesion: LIVER: HEPATOCELLULAR CARCINOMA, LIVER: HEPATOCELLULAR ADENOMA OR CARCINOMA, CIRCULATORY SYSTEM: HEMANGIOSARCOMA",active; positive
same,carcinogen call,"Species: MOUSE, Strain/Sex: B6C3F1/MALE, Route: ORAL, Dose: 0, 2500, 5000 PPM IN DIET FOR 78 WK (STUDY DURATION: 91 WK), Dose: 0, 2500, 5000 PPM IN DIET FOR 78 WK (STUDY DURATION: 91 WK), Tumor Site: Type of Lesion: SPLEEN: HEMANGIOSARCOMA, LIVER: HEMANGIOMA AND HEMANGIOSARCOMA, KIDNEY: HEMANGIOSARCOMA, MULTIPLE ORGANS: HEMANGIOSARCOM, Tumor Site: Type of Lesion: SPLEEN: HEMANGIOSARCOMA, LIVER: HEMANGIOMA AND HEMANGIOSARCOMA, KIDNEY: HEMANGIOSARCOMA, MULTIPLE ORGANS: HEMANGIOSARCOM",equivocal
same,carcinogen call,"Species: RAT, Strain/Sex: F344/FEMALE, Route: GAVAGE, Dose: 0, 2, 6, 18 MG/KG IN ACIDIFIED WATER 5D/WK FOR 103 WK (STUDY DURATION: 104 WK), Dose: 0, 2, 6, 18 MG/KG IN ACIDIFIED WATER 5D/WK FOR 103 WK (STUDY DURATION: 104 WK), Tumor Site: Type of Lesion: SPLEEN: SARCOMA, ADRENAL GLAND: PHEOCHROMOCYTOMA",equivocal
same,carcinogen call,"Species: RAT, Strain/Sex: F344/FEMALE, Route: ORAL, Dose: 0, 250, 500 PPM IN DIET FOR 78 WK (STUDY DURATION: 102 WK), Dose: 0, 250, 500 PPM IN DIET FOR 78 WK (STUDY DURATION: 102 WK)",inactive; negative
same,carcinogen call,"Species: RAT, Strain/Sex: F344/MALE, Route: GAVAGE, Dose: 0, 2, 6, 18 MG/KG IN ACIDIFIED WATER 5D/WK FOR 103 WK (STUDY DURATION: 104 WK), Dose: 0, 2, 6, 18 MG/KG IN ACIDIFIED WATER 5D/WK FOR 103 WK (STUDY DURATION: 104 WK), Tumor Site: Type of Lesion: ADRENAL MEDULLA: PHEOCHROMOCYTOMA, ADRENAL MEDULLA: PHEOCHROMOCYTOMA OR MALIGNANT PHEOCHROMOCYTOMA, SPLEEN: FIBROSARCOMA, Tumor Site: Type of Lesion: ADRENAL MEDULLA: PHEOCHROMOCYTOMA, ADRENAL MEDULLA: PHEOCHROMOCYTOMA OR MALIGNANT PHEOCHROMOCYTOMA, SPLEEN: FIBROSARCOMA",active; positive
same,carcinogen call,"Species: RAT, Strain/Sex: F344/MALE, Route: ORAL, Dose: 0, 250, 500 PPM IN DIET FOR 78 WK (STUDY DURATION: 102 WK), Dose: 0, 250, 500 PPM IN DIET FOR 78 WK (STUDY DURATION: 102 WK), Tumor Site: Type of Lesion: SPLEEN OR PERITONEUM: SARCOMA",active; positive
same,carcinogen call,"Species: RAT, Strain/Sex: F344/MALE, Route: ORAL, Dose: 0, 250, 500 PPM IN DIET FOR 78 WK (STUDY DURATION: 102 WK), Dose: 0, 250, 500 PPM IN DIET FOR 78 WK (STUDY DURATION: 102 WK), Tumor Site: Type of Lesion: SPLEEN: FIBROMA AND SARCOMA",equivocal
CC/C=C/C=C/C=C/C=C/C=C/OC[C@@H](O)CO,carcinogen call,"Species: MOUSE, Strain/Sex: ICR/FEMALE, Route: INTRAPERITONEAL, Dose: 0, 2.6 MG/KG IN DMSO ON D 1 AND D 3 THEN 0, 5.2 MG/KG IN DMSO ON D 7, 10, 14 AND (STUDY DURATION: 21 MO), Dose: 0, 2.6 MG/KG IN DMSO ON D 1 AND D 3 THEN 0, 5.2 MG/KG IN DMSO ON D 7, 10, 14 AND (STUDY DURATION: 21 MO)",inactive; negative
same,carcinogen call,"Species: MOUSE, Strain/Sex: ICR/MALE, Route: INTRAPERITONEAL, Dose: 0, 2.6 MG/KG IN DMSO ON D 1 AND D 3 THEN 0, 5.2 MG/KG IN DMSO ON D 7, 10, 14 AND (STUDY DURATION: 21 MO), Dose: 0, 2.6 MG/KG IN DMSO ON D 1 AND D 3 THEN 0, 5.2 MG/KG IN DMSO ON D 7, 10, 14 AND (STUDY DURATION: 21 MO), Tumor Site: Type of Lesion: LIVER: ADENOMA, CARCINOMA, LUNG: ADENOMA, CARCINOMA, GLANDULAR STOMACH: ADENOCARCINOMA, SUBCUTANEOUS TISSUE: FIBROSARCOM, Tumor Site: Type of Lesion: LIVER: ADENOMA, CARCINOMA, LUNG: ADENOMA, CARCINOMA, GLANDULAR STOMACH: ADENOCARCINOMA, SUBCUTANEOUS TISSUE: FIBROSARCOM",active; positive
same,carcinogen call,"Species: RAT, Strain/Sex: F344/MALE, Route: INTRARECTAL, Dose: 0, 5, 10 NANOMOLAR IN 0.5 ML T-E BUFFER AND METHANOL SATURATED WITH ARGON 1/WK FOR 85 WK (STUDY DURATION: 28 MO), Dose: 0, 5, 10 NANOMOLAR IN 0.5 ML T-E BUFFER AND METHANOL SATURATED WITH ARGON 1/WK FOR 85 WK (STUDY DURATION: 28 MO)",inactive; negative
same,carcinogen call,"Species: RAT, Strain/Sex: F344/MALE, Route: INTRARECTAL, Dose: 0, 14 MG/KG IN DMSO: EMULPHOR-SALINE 34WK FOR 9 WK THEN 2/WK FOR 12 WK AND 1/WK FOR 50 WK (STUDY DURATION: 92 WK)",inactive; negative
O=C1C=Cc2cccc3cccc1c23,carcinogen call,"Species: MOUSE, Strain/Sex: ICR/FEMALE, Route: INTRAPERITONEAL, Dose: 0, 0.84, 2.1, 4.2 MG (TOTAL DOSES) ADMINISTERED TO NEWBORN MICE AS 1/7 ON DAY 1, 2/7 ON DAY 8 AND 4/7 ON DAY 15 (STUDY D, Dose: 0, 0.84, 2.1, 4.2 MG (TOTAL DOSES) ADMINISTERED TO NEWBORN MICE AS 1/7 ON DAY 1, 2/7 ON DAY 8 AND 4/7 ON DAY 15 (STUDY D",inactive; negative
same,carcinogen call,"Species: MOUSE, Strain/Sex: ICR/MALE, Route: INTRAPERITONEAL, Dose: 0, 0.84, 2.1, 4.2 MG (TOTAL DOSES) ADMINISTERED TO NEWBORN MICE AS 1/7 ON DAY 1, 2/7 ON DAY 8 AND 4/7 ON DAY 15 (STUDY D, Dose: 0, 0.84, 2.1, 4.2 MG (TOTAL DOSES) ADMINISTERED TO NEWBORN MICE AS 1/7 ON DAY 1, 2/7 ON DAY 8 AND 4/7 ON DAY 15 (STUDY D, Tumor Site: Type of Lesion: LUNG: TUMOR",active; positive
CCOCCc1c(-c2ccccc2)nc(N)n2ncnc12,carcinogen call,"Species: RAT, Strain/Sex: STRAIN-CD/FEMALE, Route: ORAL, Dose: 0, 50, 150, 450 MG/KG/D IN DIET FOR 97 WK (STUDY DURATION: 105 WK), Dose: 0, 50, 150, 450 MG/KG/D IN DIET FOR 97 WK (STUDY DURATION: 105 WK), Tumor Site: Type of Lesion: LIVER: ADENOMA OR CARCINOMA, MAMMARY GLAND: ADENOMA OR CARCINOMA, THYROID GLAND: ADENOMA, Tumor Site: Type of Lesion: LIVER: ADENOMA OR CARCINOMA, MAMMARY GLAND: ADENOMA OR CARCINOMA, THYROID GLAND: ADENOMA",active; positive
same,carcinogen call,"Species: RAT, Strain/Sex: STRAIN-CD/MALE, Route: ORAL, Dose: 0, 50, 150, 450 MG/KG/D IN DIET FOR 97 WK (STUDY DURATION: 105 WK), Dose: 0, 50, 150, 450 MG/KG/D IN DIET FOR 97 WK (STUDY DURATION: 105 WK), Tumor Site: Type of Lesion: LIVER: ADENOMA OR CARCINOMA, THYROID GLAND: ADENOMA OR CARCINOMA",active; positive
CC(C)=NO,carcinogen call,"Species: RAT, Strain/Sex: WISTAR/MALE, Route: ORAL, Dose: 1.0 G/L IN DRINKING WATER 5/WK FOR 18 MO, Tumor Site: Type of Lesion: LIVER: HEPATOCELLULAR ADENOMA",active; positive
CCC(CC)[N+](=O)[O-],carcinogen call,"Species: RAT, Strain/Sex: F344/MALE, Route: GAVAGE, Dose: 0, 2 MMOL/KG BW 1/WK FOR 12 WK THEN 1 MMOL/KG FOR 38 WK (STUDY DURATION: 83 WK), Tumor Site: Type of Lesion: LIVER: CARCINOMA",active; positive
